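A five-concentration, 48-hour dose response in 96-well plates underlies each endpoint, interpolated linearly between surrounding concentrations. At the GI50, growth is halved.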 The source made the active and inactive calls. Rule as the data show it: active = GI50 up to about 1.1 µM and inactive = higher.
Legend:
Assay in all cases: NCI anticancer screen, dose series, 48 h
[1] = system: HL-60
[2] = system: SF-539
[3] = system: M14
[4] = system: HOP-62
[5] = system: T47D
[6] = system: NCI-H522
[7] = system: NCI-H226
[8] = system: DU-145
[9] = system: RPMI-8226
[10] = system: NCI/ADR-RES
[11] = system: TK-10
[12] = system: KM12
[13] = system: MOLT-4
[14] = system: UO-31
[15] = system: ACHN
[16] = system: A549
[17] = system: HOP-92
[18] = system: SNB-19
[19] = system: MDA-N
[20] = system: MDA-MB-231
[21] = system: SF-268
[22] = system: U-251
[23] = system: HCC 2998
[24] = system: Malme-3M
[25] = system: NCI-H23
[26] = system: SN12C
[27] = system: MDA-MB-435
[28] = system: OVCAR-3
[29] = system: 786-0
[30] = system: SK-MEL-2
[31] = system: CAKI-1
[32] = system: HCT-116
[33] = system: OVCAR-8
[34] = system: Hs-578T
[35] = system: UACC-257
[36] = system: SNB-75
[37] = system: IGROV-1
[38] = system: COLO 205
[39] = system: K562
[40] = system: SK-MEL-28
[41] = system: MCF7
[42] = system: CCRF-CEM
[43] = system: BT-549
[44] = system: NCI-H460
[45] = system: SW-620
[46] = system: A498
[47] = system: HT-29
[48] = system: LOX IMVI
[49] = system: SK-MEL-5
[50] = system: SF-295
[51] = system: EKVX
[52] = system: SK-OV-3
[53] = system: OVCAR-5
[54] = system: HCT-15
[55] = system: UACC-62
[56] = system: PC-3
[57] = system: SR
[58] = system: RXF 393
[59] = system: OVCAR-4

CNC(=O)CNC(=O)CCC(=O)N(C)C
GI50 [1]: > 100 µM (inactive)
GI50 [2]: > 100 µM (inactive)
GI50 [3]: > 100 µM (inactive)
GI50 [4]: > 100 µM (inactive)
GI50 [5]: > 100 µM (inactive)
GI50 [6]: > 100 µM (inactive)
GI50 [7]: > 100 µM (inactive)
GI50 [8]: > 100 µM (inactive)
GI50 [9]: > 100 µM (inactive)
GI50 [10]: > 100 µM (inactive)
GI50 [11]: > 100 µM (inactive)
GI50 [12]: > 100 µM (inactive)
GI50 [13]: > 100 µM (inactive)
GI50 [14]: > 100 µM (inactive)
GI50 [15]: > 100 µM (inactive)
GI50 [16]: > 100 µM (inactive)
GI50 [17]: > 100 µM (inactive)
GI50 [18]: > 100 µM (inactive)
GI50 [19]: > 100 µM (inactive)
GI50 [20]: > 100 µM (inactive)
GI50 [21]: > 100 µM (inactive)
GI50 [22]: > 100 µM (inactive)
GI50 [23]: > 100 µM (inactive)
GI50 [24]: > 100 µM (inactive)
GI50 [25]: > 100 µM (inactive)
GI50 [26]: > 100 µM (inactive)
GI50 [27]: > 100 µM (inactive)
GI50 [28]: > 100 µM (inactive)
GI50 [29]: > 100 µM (inactive)
GI50 [30]: > 100 µM (inactive)
GI50 [31]: > 100 µM (inactive)
GI50 [32]: > 100 µM (inactive)
GI50 [33]: > 100 µM (inactive)
GI50 [34]: > 100 µM (inactive)
GI50 [35]: > 100 µM (inactive)
GI50 [36]: > 100 µM (inactive)
GI50 [37]: > 100 µM (inactive)
GI50 [38]: > 100 µM (inactive)
GI50 [39]: > 100 µM (inactive)
GI50 [40]: > 100 µM (inactive)
GI50 [41]: > 100 µM (inactive)
GI50 [42]: > 100 µM (inactive)
GI50 [43]: > 100 µM (inactive)
GI50 [44]: > 100 µM (inactive)
GI50 [45]: > 100 µM (inactive)
GI50 [46]: > 100 µM (inactive)
GI50 [47]: > 100 µM (inactive)
GI50 [48]: > 100 µM (inactive)
GI50 [49]: > 100 µM (inactive)
GI50 [50]: > 100 µM (inactive)
GI50 [51]: > 100 µM (inactive)
GI50 [52]: > 100 µM (inactive)
GI50 [53]: > 100 µM (inactive)
GI50 [54]: > 100 µM
GI50 [55]: > 100 µM (inactive)
GI50 [56]: > 100 µM (inactive)

CC(=O)N1C(c2[nH]c3ccccc3c2-c2ccccc2)CCN1c1ccccc1 (stereo not given)
GI50 [1]: > 10 µM (inactive)
GI50 [2]: > 10 µM (inactive)
GI50 [3]: > 10 µM (inactive)
GI50 [4]: > 10 µM (inactive)
GI50 [5]: > 10 µM (inactive)
GI50 [6]: > 10 µM (inactive)
GI50 [57]: > 10 µM (inactive)
GI50 [7]: > 10 µM (inactive)
GI50 [8]: > 10 µM (inactive)
GI50 [9]: > 10 µM (inactive)
GI50 [10]: > 10 µM (inactive)
GI50 [11]: > 10 µM (inactive)
GI50 [13]: > 10 µM (inactive)
GI50 [14]: > 10 µM (inactive)
GI50 [15]: > 10 µM (inactive)
GI50 [16]: > 10 µM (inactive)
GI50 [18]: > 10 µM (inactive)
GI50 [19]: > 10 µM (inactive)
GI50 [20]: > 10 µM (inactive)
GI50 [21]: > 10 µM (inactive)
GI50 [23]: > 10 µM (inactive)
GI50 [24]: > 10 µM (inactive)
GI50 [25]: > 10 µM (inactive)
GI50 [26]: > 10 µM (inactive)
GI50 [27]: > 10 µM (inactive)
GI50 [28]: > 10 µM (inactive)
GI50 [29]: > 10 µM (inactive)
GI50 [30]: > 10 µM (inactive)
GI50 [31]: > 10 µM (inactive)
GI50 [32]: > 10 µM (inactive)
GI50 [33]: > 10 µM (inactive)
GI50 [34]: > 10 µM (inactive)
GI50 [35]: > 10 µM (inactive)
GI50 [36]: > 10 µM (inactive)
GI50 [37]: > 10 µM (inactive)
GI50 [38]: > 10 µM (inactive)
GI50 [39]: 9.18 µM (inactive)
GI50 [40]: > 10 µM (inactive)
GI50 [58]: > 10 µM (inactive)
GI50 [41]: > 10 µM (inactive)
GI50 [42]: 7.8 µM (inactive)
GI50 [43]: > 10 µM (inactive)
GI50 [44]: > 10 µM (inactive)
GI50 [45]: > 10 µM (inactive)
GI50 [59]: > 10 µM (inactive)
GI50 [47]: > 10 µM (inactive)
GI50 [48]: > 10 µM (inactive)
GI50 [49]: > 10 µM (inactive)
GI50 [50]: > 10 µM (inactive)
GI50 [51]: > 10 µM (inactive)
GI50 [52]: > 10 µM (inactive)
GI50 [53]: > 10 µM (inactive)
GI50 [54]: > 10 µM
GI50 [56]: 8.97 µM (inactive)

From ChEMBL document CHEMBL1201862, “PubChem BioAssay data set” (2004)
